Measured values taken from patent US5202315A, “Cephalosporin compounds” (Lucky, Ltd., priority 1989, dated 1993).
Values after ≈ are worked out from the molar mass of the structure shown. Where two headings read alike, the source gives them in different places.

Experiments:
[1] = system: Serratia marcescens ATCC 27117; test: Antibacterial activity, MIC; type: cell-based; conditions: ATCC27117, ATCC 27117, agar two-fold dilution, 37° C., 20 hours, read-out: MIC
Protocol: (§1) Also, the in vitro antibacterial activity was determined by the by a two-fold dilution method as described below:
(§2) That is, the two-fold serial dilutions of the compound were made dispersed in Muller-Hinton agar medium. 2 μl of standard test strain which had the 10^7 CFU per ml was inoculated on the medium, and was incubated at 37° C. for 20 hours.

[2] = system: Morganella morganii ATCC 8076h; test: Antibacterial activity, MIC; type: cell-based; conditions: ATCC8076H, agar two-fold dilution, 37° C., 20 hours
Protocol: as §1, §2

[3] = system: Pseudomonas aeruginosa ATCC 25619; test: Antibacterial activity, MIC; type: cell-based; conditions: ATCC25619, ATCC 25619, agar two-fold dilution, 37° C., 20 hours, read-out: MIC
Protocol: as §1, §2

[4] = system: Micrococcus luteus ATCC 9341; test: Antibacterial activity, MIC; type: cell-based; conditions: ATCC9341, ATCC 9341, agar two-fold dilution, 37° C., 20 hours, read-out: MIC
Protocol: as §1, §2

[5] = system: Citrobacter freundii ATCC 8090; test: Antibacterial activity, MIC; type: cell-based; conditions: ATCC8090, ATCC 8090, agar two-fold dilution, 37° C., 20 hours, read-out: MIC
Protocol: as §1, §2

[6] = system: Bacillus cereus ATCC 11778; test: Antibacterial activity, MIC; type: cell-based; conditions: ATCC11778, ATCC 11778, agar two-fold dilution, 37° C., 20 hours, read-out: MIC
Protocol: as §1, §2

[7] = system: Proteus vulgaris ATCC 6059; test: Antibacterial activity, MIC; type: cell-based; conditions: ATCC6059, ATCC 6059, agar two-fold dilution, 37° C., 20 hours, read-out: MIC
Protocol: as §1, §2

[8] = system: Bacillus megaterium ATCC 9885; test: Antibacterial activity, MIC; type: cell-based; conditions: Priestia megaterium, ATCC9885; ATCC 9885; agar two-fold dilution, 37° C., 20 hours; read-out: MIC
Protocol: as §1, §2

[9] = system: Klebsiella pneumoniae ATCC 10031; test: Antibacterial activity, MIC; type: cell-based; conditions: ATCC10031, ATCC 10031, agar two-fold dilution, 37° C., 20 hours, read-out: MIC
Protocol: as §1, §2

[10] = system: Salmonella typhimurium ATCC 14028; test: Antibacterial activity, MIC; type: cell-based; conditions: Salmonella enterica; ATCC 14028; agar two-fold dilution, 37° C., 20 hours; read-out: MIC
Protocol: as §1, §2

[11] = system: Staphylococcus aureus ATCC 6538p; test: Antibacterial activity, MIC; type: cell-based; conditions: ATCC6538P, ATCC 6538p, agar two-fold dilution, 37° C., 20 hours, read-out: MIC
Protocol: as §1, §2

[12] = system: Enterobacter aerogenes ATCC 29751; test: Antibacterial activity, MIC; type: cell-based; conditions: Klebsiella aerogenes, ATCC29751; ATCC 29751; agar two-fold dilution, 37° C., 20 hours; read-out: MIC
Protocol: as §1, §2

[13] = system: Escherichia coli ATCC 10536; test: Antibacterial activity, MIC; type: cell-based; conditions: ATCC10536, agar two-fold dilution, 37° C., 20 hours
Protocol: as §1, §2

[14] = system: Acinetobacter calcoaceticus ATCC 15473; test: Antibacterial activity, MIC; type: cell-based; conditions: ATCC15473, ATCC 15473, agar two-fold dilution, 37° C., 20 hours, read-out: MIC
Protocol: as §1, §2

[15] = system: Staphylococcus epidermidis ATCC 12228; test: Antibacterial activity, MIC; type: cell-based; conditions: ATCC12228, ATCC 12228, agar two-fold dilution, 37° C., 20 hours, read-out: MIC
Protocol: as §1, §2

[16] = system: Enterobacter cloacae ATCC 27508; test: Antibacterial activity, MIC; type: cell-based; conditions: ATCC27508, ATCC 27508, agar two-fold dilution, 37° C., 20 hours, read-out: MIC
Protocol: as §1, §2

[17] = system: Pseudomonas aeruginosa ATCC 27853; test: Antibacterial activity, MIC; type: cell-based; conditions: ATCC27853, ATCC 27853, agar two-fold dilution, 37° C., 20 hours, read-out: MIC
Protocol: as §1, §2

[18] = system: Staphylococcus aureus ATCC 10537; test: Antibacterial activity, MIC; type: cell-based; conditions: ATCC10537, ATCC 10537, agar two-fold dilution, 37° C., 20 hours, read-out: MIC
Protocol: as §1, §2

[19] = system: Pseudomonas aeruginosa ATCC 10145; test: Antibacterial activity, MIC; type: cell-based; conditions: ATCC10145, ATCC 10145, agar two-fold dilution, 37° C., 20 hours, read-out: MIC
Protocol: as §1, §2

[20] = system: Proteus mirabilis ATCC 25933; test: Antibacterial activity, MIC; type: cell-based; conditions: ATCC25933, ATCC 25933, agar two-fold dilution, 37° C., 20 hours, read-out: MIC
Protocol: as §1, §2

[21] = system: Escherichia coli ATCC 25922; test: Antibacterial activity, MIC; type: cell-based; conditions: ATCC25922, agar two-fold dilution, 37° C., 20 hours
Protocol: as §1, §2

[22] = system: Shigella sonnei ATCC 11060; test: Antibacterial activity, MIC; type: cell-based
Protocol: as §1, §2

[23] = system: Shigella flexneri ATCC 11836; test: Antibacterial activity, MIC; type: cell-based; conditions: ATCC11836, agar two-fold dilution, 37° C., 20 hours
Protocol: as §1, §2

[24] = system: Providencia rettgeri ATCC 9250; test: Antibacterial activity, MIC; type: cell-based; conditions: ATCC9250, agar two-fold dilution, 37° C., 20 hours
Protocol: as §1, §2

[25] = In-vivo absorbency (plasma concentrations & pharmacokinetic parameters); design: species or system SD rat (male); conditions: plasma, SD male rat, iv 20 mg/kg, read-out: Plasma Conc.
[26] = as above; design: species or system SD rat (male); conditions: plasma, SD male rat, iv 20 mg/kg; for concentration at 1 h: 60 min; for concentration at 1 h / concentration at 2 h: read-out: Plasma Conc.; for concentration at 2 h: 120 min; for AUC / half-life: two compartment model; for half-life: rat, iv, 20 mg/kg
Excerpt: The blood samples from the femoral vein of the rats were taken every hour after administration, and analyzed by bio-assay(agar well method).
Tested animal: SD male Rat (220~340 g)

[27] = system: Streptococcus faecalis ATCC 29212; test: Antibacterial activity, MIC; type: cell-based; conditions: Enterococcus faecalis, ATCC29212; ATCC 29212; agar two-fold dilution, 37° C., 20 hours; read-out: MIC
Protocol: as §1, §2

[28] = ATCC11060, ATCC 11060, agar two-fold dilution, 37° C., 20 hours, read-out: MIC

SMILES	MIC [1]	MIC [2]	MIC [3]	MIC [4]	MIC [5]	MIC [6]	MIC [7]	MIC [9]	MIC [10]	MIC [11]	MIC [12]	MIC [13]	MIC [14]	MIC [15]	MIC [16]	MIC [17]	MIC [18]	MIC [19]	MIC [20]	MIC [21]	further results
CCO/N=C(\C(=O)NC1C(=O)N2C(C(=O)[O-])=C(CSc3nc(N)cc(N)[n+]3C)CSC12)c1csc(N)n1 (stereo not shown) [Compound I-11]	0.13 µg/mL (≈ 0.23 µM)	≤ 0.008 µg/mL	2 µg/mL (≈ 3.54 µM)	0.016 µg/mL (≈ 0.0283 µM)	0.063 µg/mL (≈ 0.111 µM)	32 µg/mL (≈ 56.6 µM)	0.25 µg/mL (≈ 0.442 µM)	0.016 µg/mL (≈ 0.0283 µM)	0.25 µg/mL (≈ 0.442 µM)	0.25 µg/mL (≈ 0.442 µM)	0.5 µg/mL (≈ 0.884 µM)	0.13 µg/mL (≈ 0.23 µM)	4 µg/mL (≈ 7.07 µM)	0.063 µg/mL (≈ 0.111 µM)	≤ 0.008 µg/mL	4 µg/mL (≈ 7.07 µM)	0.25 µg/mL (≈ 0.442 µM)	8 µg/mL (≈ 14.1 µM)	0.25 µg/mL (≈ 0.442 µM)	0.13 µg/mL (≈ 0.23 µM)	MIC [8]: 0.13 µg/mL (≈ 0.23 µM); MIC ([22]; ATCC11060, 20 h): 0.13 µg/mL (≈ 0.23 µM); MIC [23]: 0.031 µg/mL (≈ 0.0548 µM); MIC [24]: ≤ 0.008 µg/mL
CCc1c(N)nc(SCC2=C(C(=O)[O-])N3C(=O)C(NC(=O)/C(=N\OC(C)(C)C(=O)O)c4csc(N)n4)C3SC2)[n+](C)c1N (stereo not shown) [Compound I-31]	0.25 µg/mL (≈ 0.384 µM)	≤ 0.008 µg/mL	1 µg/mL (≈ 1.53 µM)	0.5 µg/mL (≈ 0.767 µM)	0.13 µg/mL (≈ 0.199 µM)	128 µg/mL (≈ 196 µM)	0.063 µg/mL (≈ 0.0967 µM)	0.063 µg/mL (≈ 0.0967 µM)	0.25 µg/mL (≈ 0.384 µM)	4 µg/mL (≈ 6.14 µM)	2 µg/mL (≈ 3.07 µM)	0.063 µg/mL (≈ 0.0967 µM)	8 µg/mL (≈ 12.3 µM)	2 µg/mL (≈ 3.07 µM)	0.016 µg/mL (≈ 0.0245 µM)	2 µg/mL (≈ 3.07 µM)	4 µg/mL (≈ 6.14 µM)	4 µg/mL (≈ 6.14 µM)	0.031 µg/mL (≈ 0.0476 µM)	0.13 µg/mL (≈ 0.199 µM)	concentration at 0.5 min [25]: 208000 ng/mL; concentration at 2.5 min [25]: 85000 ng/mL; concentration at 5 min [25]: 62000 ng/mL; concentration at 10 min [25]: 45000 ng/mL; concentration at 20 min [25]: 30000 ng/mL; concentration at 40 min [25]: 14000 ng/mL; concentration at 1 h [26]: 7700 ng/mL; concentration at 2 h [26]: 1600 ng/mL; AUC [26]: 30500 ng·h/mL; half-life ([26]; read-out: T1/2 (α)): 6 min; half-life ([26]; read-out: T1/2 (β)): 27 min; MIC [27]: > 128 µg/mL; MIC [22, 28]: 0.063 µg/mL (≈ 0.0967 µM); MIC [23]: 0.063 µg/mL (≈ 0.0967 µM); MIC [24]: ≤ 0.008 µg/mL
CCc1c(N)nc(SCC2=C(C(=O)[O-])N3C(=O)C(NC(=O)/C(=N\OC(C)(C)C(=O)O)c4csc(N)n4)C3SC2)[n+](CC)c1N (stereo not shown) [Compound I-33]	0.5 µg/mL (≈ 0.751 µM)	≤ 0.008 µg/mL	2 µg/mL (≈ 3 µM)	0.5 µg/mL (≈ 0.751 µM)	0.13 µg/mL (≈ 0.195 µM)	128 µg/mL (≈ 192 µM)	0.13 µg/mL (≈ 0.195 µM)	0.13 µg/mL (≈ 0.195 µM)	0.5 µg/mL (≈ 0.751 µM)	4 µg/mL (≈ 6.01 µM)	4 µg/mL (≈ 6.01 µM)	0.13 µg/mL (≈ 0.195 µM)	16 µg/mL (≈ 24 µM)	2 µg/mL (≈ 3 µM)	0.031 µg/mL (≈ 0.0466 µM)	2 µg/mL (≈ 3 µM)	4 µg/mL (≈ 6.01 µM)	4 µg/mL (≈ 6.01 µM)	0.063 µg/mL (≈ 0.0946 µM)	0.13 µg/mL (≈ 0.195 µM)	concentration at 0.5 min [25]: 194000 ng/mL; concentration at 2.5 min [25]: 79000 ng/mL; concentration at 5 min [25]: 55000 ng/mL; concentration at 10 min [25]: 36000 ng/mL; concentration at 20 min [25]: 21000 ng/mL; concentration at 40 min [25]: 13000 ng/mL; concentration at 1 h [26]: 7000 ng/mL; concentration at 2 h [26]: 1200 ng/mL; AUC [26]: 30500 ng·h/mL; half-life ([26]; read-out: T1/2 (α)): 2 min; half-life ([26]; read-out: T1/2 (β)): 24 min; MIC [27]: > 128 µg/mL; MIC [22, 28]: 0.25 µg/mL (≈ 0.375 µM); MIC [23]: 0.063 µg/mL (≈ 0.0946 µM); MIC [24]: ≤ 0.008 µg/mL
